Experimental data published in US20260209249A1, “NOVEL TRICYCLIC COMPOUND AS KRAS G12D INHIBITOR, AND USE THEREOF” (SK Biopharmaceuticals Co., priority 2022, published 2026).
pIC50: −log10 of the molar value.

Key:
[1] = molecular target: T1, GppNHp-KRAS G12D mutant protein (Homo sapiens, UniProt P01116, G12D); experiment: Differential scanning fluorimetry (DSF) binding affinity to GppNHp-KRAS G12D mutant protein; settings: DSF thermal shift, 10 μM compound, 4 μg KRAS protein, 50 mM HEPES (pH 7.5)
T1 construct: purchased Daegu Gyeongbuk Medical Innovation Foundation (DGMIF), made to order
In short: (§1)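 Each sample held 4 μg recombinant KRAS G12D (GDP- or GppNHp-bound) and 10 μM compound, incubated 30 min at room temperature before adding 2× SYPRO Orange. The GDP form was run in kit buffer, the GppNHp form in 50 mM HEPES pH 7.5. Melt was 25–99 °C at 0.05 °C/s (580/623 nm), reported as ΔTm versus no compound.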

[2] = system: KRAS G12D mutant pancreatic cancer cell line AsPC-1; experiment: Cell viability assay using KRAS G12D mutant cells (AsPC-1, 3D culture, celltiter-glo 3D); assay type: cell-based; settings: Homo sapiens, ASPC1, 5th day after compound treatment
Procedure: Test Example 3: Cell Viability Assay Using KRAS G12D Mutant Cells
The KRAS G12D mutant pancreatic cancer cell line AsPC-1 was obtained from the Korean Cell Line Bank (KCLB) and maintained in 100-mm dishes or T75 (75 cm^2) flasks using RPM11640+10% fetal bovine serum (FBS)+1% Penicillin-Streptomycin medium. The cells were cultured at 37° C. with 5% CO2. The number of viable cells was counted using Countess (Invitrogen).
When AsPC-1 cells reached 85-100% confluence in the flask, the cells were harvested using 1× trypsin/EDTA solution, and seeded into a 96-well plate for 3D culture at 1000 cells/100 μL/well. The next day, the compounds were diluted ⅕ with DMSO from 10 μM or 50 μM to 0.0001 μM or 0.0006 μM and treated 1:1 (v/v) in the plate where the cells were seeded.
Cell culture was terminated on the 5th day after compound treatment, and cell viability at each concentration was measured using the celltiter-glo 3D cell viability assay kit.
Cell viability assays were normalized to 100% for the DMSO-treated group and expressed as a percentage of the number of viable cells when treated with the compound.
Cell viability %=(average RLU of group treated with test substance−average RLU of untreated group)/(average RLU of group treated with DMSO−average RLU of untreated group)×100
The data were modeled using GraphPad Prism 9 (GraphPad Software) by applying a nonlinear regression curve fit with a four-parameter sigmoidal dose-response curve to determine cell viability as a function of compound concentration. The 50% inhibitory concentration (IC50) corresponds to the concentration at which the curve intersects the midpoint of cell viability. The results of the inhibitory effect of the compounds according to one embodiment of the present application on the viability of KRAS G12D mutant cells are presented in Table 4.

[3] = molecular target: T2, GDP-KRAS G12D mutant protein (Homo sapiens, UniProt P01116, G12D); experiment: Differential scanning fluorimetry (DSF) binding affinity to GDP-KRAS G12D mutant protein; settings: DSF thermal shift, 10 μM compound, 4 μg KRAS protein
T2 construct: purchased Daegu Gyeongbuk Medical Innovation Foundation (DGMIF), made to order
In short: as §1

[4] = system: ERK phosphorylation (pERK) induced by KRAS G12D mutation; experiment: Inhibitory activity against ERK phosphorylation (pERK) induced by KRAS G12D mutation, immunofluorescence assay in AsPC-1 cells; assay type: cell-based; settings: Homo sapiens, ASPC1, 3 h drug treatment, pERK (Thr202/Tyr204) signal normalized to DAPI
In short: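 AsPC-1 cells attached 16 h, then treated 3 h with 3-fold dilutions from 10 μM top. Fixed, permeabilized, immunostained for pERK (Thr202/Tyr204) with Alexa 488 secondary; high-content imaging, signal normalized to DAPI and to DMSO, IC50 from four-parameter fit.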

## C#Cc1c(F)ccc2cc(O)cc(-c3c(F)c4nc(OC[C@@]56CC[C@@H](COC)N5CC(=C)C6)nc(N5C[C@H]6CC[C@@H](C5)N6)c4c4cn(C)nc34)c12 [Example 96, 4-(9-((1R,5S)-3,8-diazabicyclo[3.2.1]octan-3-yl)-5-fluoro-7-(((5S,7aS)-5-(methoxymethyl)-2-methylenetetrahydro-1H-pyrrolizin-7a(5H)-yl)methoxy)-2-methyl-2H-pyrazolo[4,3-n]quinazolin-4-yl)-5-ethynyl-6-fluoronaphthalen-2-ol]
[1]
  GppNHp-KRAS G12D (ΔTmD, ° C.): 10.64 °C
[2]
  pIC50: 7.96
[3]
  GDP-KRAS G12D (ΔTmD, ° C.): 15.09 °C
[4]
  pIC50: 7.70

## C#Cc1c(F)ccc2cc(O)cc(-c3c(F)c4nc(OC[C@@]56CCCN5C[C@H](F)C6)nc(N5CC6CCC(C5)N6)c4c4cc(C)oc34)c12 [Example 44, 4-(1-((1R,5S)-3,8-diazabicyclo[3.2.1]octan-3-yl)-5-fluoro-3-(((2R,7aS)-2-fluorotetrahydro-1H-pyrrolizin-7a(5H)-yl)methoxy)-8-methylfuro[3,2-n]quinazolin-6-yl)-5-ethynyl-6-fluoronaphthalen-2-ol]
[1]
  GppNHp-KRAS G12D (ΔTmD, ° C.): 9.89 °C
[2]
  pIC50: 8.15
[3]
  GDP-KRAS G12D (ΔTmD, ° C.): 14.33 °C
[4]
  pIC50: 7.92

## C#Cc1c(F)ccc2cc(O)cc(-c3cc4nc(OCC5(CN6CC[C@@H](F)C6)CC5)nc(N5[C@@H]6CC[C@H]5CNC6)c4n4ccnc34)c12 [Example 16, 4-(1-((1R,5S)-3,8-diazabicyclo[3.2.1]octan-8-yl)-3-((1-(((R)-3-fluoropyrrolidin-1-yl)methyl)cyclopropyl)methoxy)imidazo[1′,2′:1,6]pyrido[3,2-d]pyrimidin-6-yl)-5-ethynyl-6-fluoronaphthalen-2-ol]
[1]
  GppNHp-KRAS G12D (ΔTmD, ° C.): 4.27 °C
[2]
  pIC50: 7.03
[3]
  GDP-KRAS G12D (ΔTmD, ° C.): 9.01 °C
[4]
  pIC50: 6.75

## C#Cc1c(F)ccc2cc(O)cc(-c3cc4nc(OCC5(CN6C[C@@H]7C[C@H]6CO7)CC5)nc(N5C[C@H]6CC[C@@H](C5)N6)c4n4ccnc34)c12 [Example 12, 4-(3-((1-(((1S,4S)-2-oxa-5-azabicyclo[2.2.1]heptan-5-yl)methyl)cyclopropyl)methoxy)-1-((1 R,5S)-3,8-diazabicyclo[3.2.1]octan-3-yl)imidazo[1′,2′:1,6]pyrido[3,2-d]pyrimidin-6-yl)-5-ethynyl-6-fluoronaphthalen-2-ol]
[1]
  GppNHp-KRAS G12D (ΔTmD, ° C.): 2.65 °C
[2]
  pIC50: 6.01
[3]
  GDP-KRAS G12D (ΔTmD, ° C.): 9.61 °C
[4]
  pIC50: 5.97

## C#Cc1c(F)ccc2cc(O)cc(-c3cc4nc(OC[C@@]56CCCN5CC(=C(F)F)C6)nc(N5C[C@H]6CC[C@@H](C5)N6)c4n4ccnc34)c12 [Example 37, 4-(1-((1R,5S)-3,8-diazabicyclo[3.2.1]octan-3-yl)-3-(((S)-2-(difluoromethylene)tetrahydro-1H-pyrrolizin-7a(5H)-yl)methoxy)imidazo[1′,2′:1,6]pyrido[3,2-d]pyrimidin-6-yl)-5-ethynyl-6-fluoronaphthalen-2-ol]
[1]
  GppNHp-KRAS G12D (ΔTmD, ° C.): 5.76 °C
[2]
  pIC50: 7.54
[3]
  GDP-KRAS G12D (ΔTmD, ° C.): 11.53 °C
[4]
  pIC50: 7.92

## Cn1cc2c(n1)c(-c1cc(O)cc3ccc(F)c(F)c13)c(F)c1nc(OC[C@@]34CCCN3C/C(=C\F)C4)nc(N3C[C@H]4CC[C@@H](C3)N4)c12 [Example 86, 4-(9-((1R,5S)-3,8-diazabicyclo[3.2.1]octan-3-yl)-5-fluoro-7-(((S,Z)-2-(fluoromethylene)tetrahydro-1H-pyrrolizin-7a(5H)-yl)methoxy)-2-methyl-2H-pyrazolo[4,3-f]quinazolin-4-yl)-5,6-difluoronaphthalen-2-ol]
[1]
  GppNHp-KRAS G12D (ΔTmD, ° C.): 10.69 °C
[2]
  pIC50: 7.32
[3]
  GDP-KRAS G12D (ΔTmD, ° C.): 13.07 °C
[4]
  pIC50: 7.54

## C#Cc1c(F)ccc2cc(O)cc(-c3cc4nc(OC[C@@]56CCCN5C[C@H](F)C6)nc(N5C[C@H]6CC[C@@H](C5)N6)c4n4ccnc34)c12 [Example 2, 4-(1-((1 R,5S)-3,8-diazabicyclo[3.2.1]octan-3-yl)-3-(((2R,7aS)-2-fluorotetrahydro-1H-pyrrolizin-7a(5H)-yl)methoxy)imidazo[1′,2′:1,6]pyrido[3,2-d]pyrimidin-6-yl)-5-ethynyl-6-fluoronaphthalen-2-ol]
[1]
  GppNHp-KRAS G12D (ΔTmD, ° C.): 5.61 °C
[2]
  pIC50: 6.65
[3]
  GDP-KRAS G12D (ΔTmD, ° C.): 9.91 °C
[4]
  pIC50: 6.77

## C#Cc1c(F)ccc2cc(O)cc(-c3cc4nc(OC[C@@]56CCCN5C[C@H](F)C6)nc(N5C[C@H]6CC[C@@H](C5)N6)c4c4cc(C)oc34)c12 [Example 42, 4-(1-((1R,5S)-3,8-diazabicyclo[3.2.1]octan-3-yl)-3-(((2R,7aS)-2-fluorotetrahydro-1H-pyrrolizin-7a(5H)-yl)methoxy)-8-methylfuro[3,2-f]quinazolin-6-yl)-5-ethynyl-6-fluoronaphthalen-2-ol]
[1]
  GppNHp-KRAS G12D (ΔTmD, ° C.): 5.75 °C
[2]
  pIC50: 6.98
[3]
  GDP-KRAS G12D (ΔTmD, ° C.): 10.96 °C
[4]
  pIC50: 7.19

## C#Cc1c(F)ccc2cc(N)cc(-c3cc4nc(OC[C@@]56CCCN5C/C(=C\F)C6)nc(N5C[C@H]6CC[C@@H](C5)N6)c4c4cn(C)nc34)c12 [Example 74, 4-(9-((1R,5S)-3,8-diazabicyclo[3.2.1]octan-3-yl)-7-(((S,Z)-2-(fluoromethylene)tetrahydro-1H-pyrrolizin-7a(5H)-yl)methoxy)-2-methyl-2H-pyrazolo[4,3-f]quinazolin-4-yl)-5-ethynyl-6-fluoronaphthalen-2-amine]
[1]
  GppNHp-KRAS G12D (ΔTmD, ° C.): 5.30 °C
[2]
  pIC50: 6.96
[3]
  GDP-KRAS G12D (ΔTmD, ° C.): 7.82 °C
[4]
  pIC50: 6.84

## CCc1c(F)ccc2cc(O)cc(-c3c(F)c4nc(OC[C@@]56CCCN5C[C@H](F)C6)nc(N5C[C@H]6CC[C@@H](C5)N6)c4c4cn(C)nc34)c12 [Example 93, 4-(9-((1R,5S)-3,8-diazabicyclo[3.2.1]octan-3-yl)-5-fluoro-7-(((2R,7aS)-2-fluorotetrahydro-1H-pyrrolizin-7a(5H)-yl)methoxy)-2-methyl-2H-pyrazolo[4,3-n]quinazolin-4-yl)-5-ethyl-6-fluoronaphthalen-2-ol]
[1]
  GppNHp-KRAS G12D (ΔTmD, ° C.): 8.72 °C
[2]
  pIC50: 7.42
[3]
  GDP-KRAS G12D (ΔTmD, ° C.): 14.20 °C
[4]
  pIC50: 7.80

## C#Cc1c(F)ccc2cc(N)cc(-c3c(F)c4nc(OC[C@@]56CCCN5C[C@H](F)C6)nc(N5C[C@H]6CC[C@@H](C5)N6)c4c4cc(C)oc34)c12 [Example 57, 4-(1-((1R,5S)-3,8-diazabicyclo[3.2.1]octan-3-yl)-5-fluoro-3-(((2R,7aS)-2-fluorotetrahydro-1H-pyrrolizin-7a(5H)-yl)methoxy)-8-methylfuro[3,2-f]quinazolin-6-yl)-5-ethynyl-6-fluoronaphthalen-2-amine]
[1]
  GppNHp-KRAS G12D (ΔTmD, ° C.): 5.76 °C
[2]
  pIC50: 7.00
[3]
  GDP-KRAS G12D (ΔTmD, ° C.): 8.57 °C
[4]
  pIC50: 6.78

## C#Cc1c(F)ccc2cc(O)cc(-c3cc4nc(OCC5(CN6CCO[C@H](C)C6)CC5)nc(N5C[C@H]6CC[C@@H](C5)N6)c4n4ccnc34)c12 [Example 11, 4-(1-((1R,5S)-3,8-diazabicyclo[3.2.1]octan-3-yl)-3-((1-(((R)-2-methylmorpholino)methyl)cyclopropyl)methoxy)imidazo[1′,2′:1,6]pyrido[3,2-d]pyrimidin-6-yl)-5-ethynyl-6-fluoronaphthalen-2-ol]
[1]
  GppNHp-KRAS G12D (ΔTmD, ° C.): 2.49 °C
[2]
  pIC50: 6.85
[3]
  GDP-KRAS G12D (ΔTmD, ° C.): 9.74 °C
[4]
  pIC50: 6.76
